Results as given in ChEMBL document CHEMBL5052856, “Inhibitors of apol1 and methods of using same” (2021).

How the values were obtained:
Apolipoprotein L1 = Apolipoprotein L1 (Homo sapiens, UniProt O14791); assay: Inhibition of APOL1 G1 variant in human HEK293-T-REx cells measured by Thallium assay; format: cell-based
[1] = system: Trypanosoma brucei brucei; assay: Antitrypanosomal activity against Trypanosoma brucei brucei assessed as trypanosome lysis using recombinant APOL1 protein G1 variant and measured by Alamar blue based fluoresence assay; format: functional, organism-based

Row | SMILES | IC50 (Apolipoprotein L1) | IC50 [1]
1 | O=C([C@H]1C[C@H](c2c(-c3ccc(F)cc3)[nH]c3c(F)cc(F)cc32)C1)N1CC2(CC(O)C2)C1 | > 1000 nM | > 1000 nM
2 | O=C1NCCCC1NC(=O)[C@H]1C[C@H](c2c(-c3ccc(F)cc3)[nH]c3c(F)cc(F)cc32)C1 (some centres undefined) | 0.25 nM | 250 nM
3 | O=C([C@H]1C[C@H](c2c(-c3ccc(F)cc3)[nH]c3c(F)cc(F)cc32)C1)N1CC[C@H]1CO | 0.25 nM | < 250 nM
4 | CC(C)(NC(=O)[C@H]1C[C@H](c2c(-c3ccc(F)cc3)[nH]c3c(F)cc(F)cc32)C1)C(=O)N1CCOCC1 | > 1000 nM | > 1000 nM
5 | O=C(NC(CO)CO)[C@H]1C[C@H](c2c(-c3ccc(F)cc3)[nH]c3c(F)cc(F)cc32)C1 | < 250 nM | < 250 nM
6 | O=C(N[C@H]1CCC[C@@H]1O)[C@H]1C[C@H](c2c(-c3ccc(F)cc3)[nH]c3c(F)cc(F)cc32)C1 | 0.25 nM | 250 nM
7 | O=C([C@H]1C[C@H](c2c(-c3ccc(F)cc3)[nH]c3c(F)cc(F)cc32)C1)N1CCCCC1CCO (some centres undefined) | > 1000 nM | > 1000 nM
8 | CC1(NC(=O)[C@H]2C[C@H](c3c(-c4ccc(F)cc4)[nH]c4c(F)cc(F)cc43)C2)CCNC1=O (some centres undefined) | 0.25 nM | < 250 nM
9 | CN1CC(CNC(=O)[C@H]2C[C@H](c3c(-c4ccc(F)cc4)[nH]c4c(F)cc(F)cc43)C2)CC1=O (some centres undefined) | > 1000 nM | > 1000 nM
10 | CC(C)(CO)NC(=O)[C@H]1C[C@H](c2c(-c3ccc(F)cc3)[nH]c3c(F)cc(F)cc32)C1 | < 250 nM | 250 nM
11 | O=C1NCC[C@@H]1NC(=O)[C@H]1C[C@H](c2c(-c3ccc(F)cc3)[nH]c3c(F)cc(F)cc32)C1 | 0.25 nM | 250 nM
12 | O=C([C@H]1C[C@H](c2c(-c3ccc(F)cc3)[nH]c3c(F)cc(F)cc32)C1)N1CCCC(O)C1 (some centres undefined) | > 1000 nM | 250 nM
13 | C[C@H](NC(=O)[C@H]1C[C@H](c2c(-c3ccc(F)cc3)[nH]c3c(F)cc(F)cc32)C1)C(=O)N(C)C | 0.25 nM | 250 nM
14 | O=C([C@H]1C[C@H](c2c(-c3ccc(F)cc3)[nH]c3c(F)cc(F)cc32)C1)N(CCOCCO)C1CCC1 | > 1000 nM | > 1000 nM
15 | O=C([C@H]1C[C@H](c2c(-c3ccc(F)cc3)[nH]c3c(F)cc(F)cc32)C1)N1CCC(O)(CO)CC1 | > 1000 nM | > 1000 nM
16 | O=C(N[C@@H]1CCC[C@@H]1O)[C@H]1C[C@H](c2c(-c3ccc(F)cc3)[nH]c3c(F)cc(F)cc32)C1 | > 1000 nM | 250 nM
17 | C#CC(CO)NC(=O)[C@H]1C[C@H](c2c(-c3ccc(F)cc3)[nH]c3c(F)cc(F)cc32)C1 (some centres undefined) | 0.25 nM | < 250 nM
18 | O=C1CC(NC(=O)[C@H]2C[C@H](c3c(-c4ccc(F)cc4)[nH]c4c(F)cc(F)cc43)C2)CN1 (some centres undefined) | > 1000 nM | > 1000 nM
19 | Cn1ncc(CNC(=O)[C@H]2C[C@H](c3c(-c4ccc(F)cc4)[nH]c4c(F)cc(F)cc43)C2)n1 | 0.25 nM | < 250 nM
20 | O=C(NCC1(O)CCC1)[C@H]1C[C@H](c2c(-c3ccc(F)cc3)[nH]c3c(F)cc(F)cc32)C1 | > 1000 nM | > 1000 nM
21 | CC(O)CN(CCO)C(=O)[C@H]1C[C@H](c2c(-c3ccc(F)cc3)[nH]c3c(F)cc(F)cc32)C1 (some centres undefined) | 0.25 nM | < 250 nM
22 | O=C(NCCn1cnnc1)[C@H]1C[C@H](c2c(-c3ccc(F)cc3)[nH]c3c(F)cc(F)cc32)C1 | > 1000 nM | > 1000 nM
23 | O=C(NCC1CC(F)(F)C1)[C@H]1C[C@H](c2c(-c3ccc(F)cc3)[nH]c3c(F)cc(F)cc32)C1 | > 1000 nM | > 1000 nM
24 | C[C@@H](O)CNC(=O)[C@H]1C[C@H](c2c(-c3ccc(F)cc3)[nH]c3c(F)cc(F)cc32)C1 | 0.25 nM | 250 nM

Row | SMILES | IC50 (Apolipoprotein L1) | IC50 [1]
25 | NC(=O)C(CO)NC(=O)[C@H]1C[C@H](c2c(-c3ccc(F)cc3)[nH]c3c(F)cc(F)cc32)C1 (some centres undefined) | < 250 nM | < 250 nM
26 | O=C([C@H]1C[C@H](c2c(-c3ccc(F)cc3)[nH]c3c(F)cc(F)cc32)C1)N1C2CCC(C2)C1CO (some centres undefined) | > 1000 nM | > 1000 nM
27 | O=C([C@H]1C[C@H](c2c(-c3ccc(F)cc3)[nH]c3c(F)cc(F)cc32)C1)N1CC(O)C(N2CCOCC2)C1 (some centres undefined) | > 1000 nM | > 1000 nM
28 | O=C1NCC[C@H]1NC(=O)[C@H]1C[C@H](c2c(-c3ccc(F)cc3)[nH]c3c(F)cc(F)cc32)C1 | 0.25 nM | < 250 nM
29 | O=C([C@H]1C[C@H](c2c(-c3ccc(F)cc3)[nH]c3c(F)cc(F)cc32)C1)N1C[C@@H](CO)OCC12CC2 | > 1000 nM | > 1000 nM
30 | CC(CO)N(C)C(=O)[C@H]1C[C@H](c2c(-c3ccc(F)cc3)[nH]c3c(F)cc(F)cc32)C1 (some centres undefined) | < 250 nM | 250 nM
31 | CN(CC(N)=O)C(=O)[C@H]1C[C@H](c2c(-c3ccc(F)cc3)[nH]c3c(F)cc(F)cc32)C1 | 0.25 nM | 250 nM
32 | CCN(C(=O)[C@H]1C[C@H](c2c(-c3ccc(F)cc3)[nH]c3c(F)cc(F)cc32)C1)C(C)CO (some centres undefined) | > 1000 nM | 250 nM
33 | O=C([C@H]1C[C@H](c2c(-c3ccc(F)cc3)[nH]c3c(F)cc(F)cc32)C1)N(CCO)c1cnccn1 | > 1000 nM | > 1000 nM
34 | O=C(NCCn1cccc1)[C@H]1C[C@H](c2c(-c3ccc(F)cc3)[nH]c3c(F)cc(F)cc32)C1 | > 1000 nM | 250 nM
35 | O=C1C[C@@H](NC(=O)[C@H]2C[C@H](c3c(-c4ccc(F)cc4)[nH]c4c(F)cc(F)cc43)C2)C(=O)N1 | < 250 nM | < 250 nM
36 | O=C([C@H]1C[C@H](c2c(-c3ccc(F)cc3)[nH]c3c(F)cc(F)cc32)C1)N1CCCC[C@@H]1CO | > 1000 nM | 250 nM
37 | NCC(O)CNC(=O)[C@H]1C[C@H](c2c(-c3ccc(F)cc3)[nH]c3c(F)cc(F)cc32)C1 (some centres undefined) | 0.25 nM | 250 nM
38 | CC(NC(=O)[C@H]1C[C@H](c2c(-c3ccc(F)cc3)[nH]c3c(F)cc(F)cc32)C1)c1ccnn1C (some centres undefined) | > 1000 nM | > 1000 nM
39 | C[C@H](O)CNC(=O)[C@H]1C[C@H](c2c(-c3ccc(F)cc3)[nH]c3c(F)cc(F)cc32)C1 | 0.25 nM | 250 nM
40 | O=C([C@H]1C[C@H](c2c(-c3ccc(F)cc3)[nH]c3c(F)cc(F)cc32)C1)N1CCOC[C@H]1CO | > 1000 nM | 250 nM
41 | O=C(NCC1(O)CCCCC1)[C@H]1C[C@H](c2c(-c3ccc(F)cc3)[nH]c3c(F)cc(F)cc32)C1 | > 1000 nM | > 1000 nM
42 | NC(=O)[C@H]1CCN(C(=O)[C@H]2C[C@H](c3c(-c4ccc(F)cc4)[nH]c4c(F)cc(F)cc43)C2)C1 | > 1000 nM | > 1000 nM
43 | CC1(CO)CCN1C(=O)[C@H]1C[C@H](c2c(-c3ccc(F)cc3)[nH]c3c(F)cc(F)cc32)C1 (some centres undefined) | 0.25 nM | < 250 nM
44 | O=C(NCC1CCOCC1)[C@H]1C[C@H](c2c(-c3ccc(F)cc3)[nH]c3c(F)cc(F)cc32)C1 | > 1000 nM | > 1000 nM
45 | Cc1nnc(CNC(=O)[C@H]2C[C@H](c3c(-c4ccc(F)cc4)[nH]c4c(F)cc(F)cc43)C2)o1 | 0.25 nM | < 250 nM
46 | CCC(O)(CCCO)CNC(=O)[C@H]1C[C@H](c2c(-c3ccc(F)cc3)[nH]c3c(F)cc(F)cc32)C1 (some centres undefined) | > 1000 nM | > 1000 nM
47 | O=C(NC(CO)C1CC1)[C@H]1C[C@H](c2c(-c3ccc(F)cc3)[nH]c3c(F)cc(F)cc32)C1 (some centres undefined) | 0.25 nM | 250 nM
